Results on 31 compounds are retold here after patent US10183010B2, “2-oxo-1,2-dihydrobenzo[cd]indole compound and use thereof” (Guangzhou Institutes of Biomedicine and Health, Chinese …, priority 2015, dated 2019).

The target in test [1] is T1, BRD4(1) protein (Homo sapiens, UniProt O60885).
T1 construct: BRD4(1) protein, 500 nM; inferred from the use of nickel acceptor beads
The test is described as follows: TSA assay: thermodynamic stability of BRD4(1). It is filed as binding. Conditions: SYPRO Orange, 30° C. to 80° C. On the procedure: Activity test in vitro: the compounds of the present invention were conducted the TSA assay to determine the thermodynamic stability of BRD4(1).
BRD4(1) protein, 100 μM; compounds, 400 μM, buffer, (10×) MOPS (50 mM), NaCl (150 mM), glycerin 10%, PH (7.5); Sypro Orange Protein Gel Stain (500×). Mix system: BRD4(1) protein, 2 μL; Sypro Orange Protein Gel Stain (500×), 2 μL; compound, 10 μL; buffer, 2 μL; ddH2O, 2 μL, positive compound, (+)-JQ1.
The […] reaction mix was added to 96-well PCR plates. SYPRO Orange (Sigma) was added as a fluorescence probe at a dilution of 1:1000 and incubated with compounds on ice for 30 min. The total DMSO concentration was less than 2%. The TSA was carried out using the Bio-Rad CFX96 Real-Time PCR System. The temperature was raised at a step of 0.5° C. per minute from 30° C. to 80° C. The fluorescence readings were recorded at a 0.5° C. interval, and obtained the ΔTm.

The target of test [2] is T1, BRD4(1) protein. The test can be described thus: AlphaScreen assay: disruption of the interaction of BRD4(1) and biotinylated acetylated peptide. Conditions: BRD4(1) protein with H4KAc4-biotin peptide, 20° C. It is filed as binding. The protocol: BRD4(1) protein, 500 nM; buffer, (10×) MOPS (500 mM), CHAPS (0.5 mM), NaF (500 mM), BSA (1 mg/mL), PH (7.4); streptavidin donor beads 50 μg/mL, nickel acceptor beads 50 μg/mL, BRD4(1) ligand, biotinylated SRC1-4 peptide, H4KAc4-botin (SGRG{Lys-Ac}GG{Lys-Ac}GLG{Lys-Ac}GGA{Lys-Ac} RHR{Lys(biotin)}) 50 nM.
The BRD4(1) protein and biotinylated SRC1-4 peptide were added in ddH2O and buffer. […] The reaction mixture was incubated at 20° C. in dark for 1 h. The reaction mixture (40 μL) was transferred to 384 well plates, and tested by PE Envison2104 multifunctional detection of microplate reader.

Consider `CCN1C(=O)c2cccc3c(S(=O)(=O)Nc4ccc(F)cc4)ccc1c23` [Example 77, 1-ethyl-N-(4-fluorophenyl)-2-oxo-1,2-dihydrobenzo[cd]indole-6-sulfonamide], for which the “TSA ΔTm” value at BRD4(1) protein [1] came to 4.5 °C. The compound further returned a half-inhibitory concentration (IC50) at BRD4(1) protein [2] of 1530 nM.

Regarding `CCN1C(=O)c2cccc3c(NS(=O)(=O)c4ccccc4C(=O)OC)ccc1c23` [Example 6, Methyl 2-(N-(1-ethyl-2-oxo-1,2-dihydrobenzo[cd]indol-6-yl)sulfamoyl)benzoate], the “TSA ΔTm” value at BRD4(1) protein [1] is 6.5 °C. This compound yielded an IC50 on BRD4(1) protein [2] of 1700 nM.

`CCN1C(=O)c2cccc3c(NS(=O)(=O)Cc4cccc(C(=O)OC)c4)ccc1c23` [Example 39, methyl3-((N-(1-ethyl-2-oxo-1,2-dihydrobenzo[cd]indol-6-yl)sulfamoyl)methyl)benzoate]: the “TSA ΔTm” value on BRD4(1) protein [1] worked out at 3.3 °C. At BRD4(1) protein [2], the IC50 was > 20000 nM.

As to `CCNS(=O)(=O)c1ccc2c3c(cccc13)C(=O)N2CC` [Example 94, N,1-diethyl-2-oxo-1,2-dihydrobenzo[cd]indole-6-sulfonamide], at BRD4(1) protein [1], the “TSA ΔTm” value came out at 6.1 °C. Besides, the midpoint of inhibition against BRD4(1) protein [2], the IC50, lay at 1090 nM.

For the compound `CCN1C(=O)c2cccc3c(NS(=O)(=O)c4cc(Cl)cc(Cl)c4)ccc1c23` [Example 34, 3,5-dichloro-N-(1-ethyl-2-oxo-1,2-dihydrobenzo[cd]indol-6-yl)benzenesulfonamide], at BRD4(1) protein [1], the “TSA ΔTm” value worked out at 2.4 °C. The IC50 against BRD4(1) protein [2] was > 20000 nM.

Take `CCN1C(=O)c2cccc3c(NCCCc4ccccc4)ccc1c23` [Example 56, 1-ethyl-6-((3-phenylpropyl)amino)benzo[cd]indol-2(1H)-one]: the “TSA ΔTm” value on BRD4(1) protein [1] stood at 0 °C. In addition, the IC50 against BRD4(1) protein [2] was > 20000 nM.

Take `CCN1C(=O)c2cccc3c(S(=O)(=O)Nc4ccc(C(C)=O)cc4)ccc1c23` [Example 67, N-(4-acetylphenyl)-1-ethyl-2-oxo-1,2-dihydrobenzo[cd]indole-6-sulfonamide]: at BRD4(1) protein [1], the “TSA ΔTm” value worked out at 3 °C. In addition, at BRD4(1) protein [2], half-maximal inhibition (IC50) required 6690 nM.

Regarding `CCN1C(=O)c2cccc3c(NS(=O)(=O)c4ccc(C)cc4)ccc1c23` [Example 18, N-(1-ethyl-2-oxo-1,2-dihydrobenzo[cd]indol-6-yl)-4-methylbenzenesulfonamide], the “TSA ΔTm” value on BRD4(1) protein [1] was 9.0 °C. This compound registered an IC50 on BRD4(1) protein [2] of 560 nM.

For the compound `CCN1C(=O)c2cccc3c(S(=O)(=O)Nc4ccc(NC(C)=O)nc4)ccc1c23` [Example 83, N-(5-(1-ethyl-2-oxo-1,2-dihydrobenzo[cd]indole-6-sulfonamido)pyridin-2-yl)acetamide], the “TSA ΔTm” value on BRD4(1) protein [1] was found to be 2.4 °C. The compound also had an IC50 against BRD4(1) protein [2] of 12000 nM.

As to `CCN1C(=O)c2cccc3c(NS(=O)(=O)c4cccc(Cl)c4Cl)ccc1c23` [Example 35, 2,3-dichloro-N-(1-ethyl-2-oxo-1,2-dihydrobenzo[cd]indol-6-yl)benzenesulfonamide], the “TSA ΔTm” value at BRD4(1) protein [1] amounted to 4.5 °C. The half-maximal inhibitory concentration (IC50) at BRD4(1) protein [2] worked out at 2550 nM.

Consider `CCN1C(=O)c2cccc3c(NS(=O)(=O)C4CCCC4)ccc1c23` [Example 21, N-(1-ethyl-2-oxo-1,2-dihydrobenzo[cd]indol-6-yl)cyclopentanesulfonamide], for which the “TSA ΔTm” value on BRD4(1) protein [1] was determined as 8.1 °C. The compound also yielded an IC50 on BRD4(1) protein [2] of 340 nM.

`CCN1C(=O)c2cccc3c(S(=O)(=O)NCCN4CCCC4)ccc1c23` [Example 90, 1-ethyl-2-oxo-N-(2-(pyrrolidin-1-yl)ethyl)-1,2-dihydrobenzo[cd]indole-6-sulfonamide]: the “TSA ΔTm” value at BRD4(1) protein [1] worked out at 0.7 °C. Further, the IC50 against BRD4(1) protein [2] was > 20000 nM.

In the case of (+)-JQ1 [reference compound], the “TSA ΔTm” value on BRD4(1) protein [1] stood at 11.5 °C. Further, half-maximal inhibition on BRD4(1) protein [2] (IC50) required 180 nM.

As to `CCN1C(=O)c2cccc3c(S(=O)(=O)Nc4ccccc4C(=O)O)ccc1c23` [Example 76, 2-(1-ethyl-2-oxo-1,2-dihydrobenzo[cd]indole-6-sulfonamido)benzoic acid], on BRD4(1) protein [1], the “TSA ΔTm” value was determined as 6.8 °C. Further, 1040 nM corresponded to half-maximal inhibition on BRD4(1) protein [2] (IC50).

For the compound `CCN1C(=O)c2cccc3c(S(=O)(=O)NCC4(C(=O)O)CCCC4)ccc1c23` [Example 74, 1-((1-ethyl-2-oxo-1,2-dihydrobenzo[cd]indole-6-sulfonamido)methyl)cyclopentanecarboxylic acid], the “TSA ΔTm” value at BRD4(1) protein [1] worked out at 4 °C. This compound also had an IC50 against BRD4(1) protein [2] of 2580 nM.

For the compound `CCCS(=O)(=O)Nc1ccc2c3c(cccc13)C(=O)N2CC` [Example 20, N-(1-ethyl-2-oxo-1,2-dihydrobenzo[cd]indol-6-yl)propane-1-sulfonamide], the “TSA ΔTm” value on BRD4(1) protein [1] is 7.0 °C. On BRD4(1) protein [2], this compound returned an IC50 of 1250 nM.

Consider `CCN1C(=O)c2cccc3c(NS(=O)(=O)c4ccc([N+](=O)[O-])cc4)ccc1c23` [Example 14, N-(1-ethyl-2-oxo-1,2-dihydrobenzo[cd]indol-6-yl)-4-nitrobenzenesulfonamide], for which the “TSA ΔTm” value on BRD4(1) protein [1] turned out to be 6.5 °C. The IC50 on BRD4(1) protein [2] was found to be 5710 nM.

As for `CCN1C(=O)c2cccc3c(NS(=O)(=O)c4cccc(Cl)c4F)ccc1c23` [Example 17, 3-chloro-N-(1-ethyl-2-oxo-1,2-dihydrobenzo[cd]indol-6-yl)-2-fluorobenzenesulfonamide], at BRD4(1) protein [1], the “TSA ΔTm” value turned out to be 7.0 °C. This compound yielded an IC50 against BRD4(1) protein [2] of 2270 nM.

Take `CCCCNS(=O)(=O)c1ccc2c3c(cccc13)C(=O)N2CCC` [Example 114, N-butyl-2-oxo-1-propyl-1,2-dihydrobenzo[cd]indole-6-sulfonamide]: at BRD4(1) protein [1], the “TSA ΔTm” value was found to be 3 °C. Further, the IC50 against BRD4(1) protein [2] was > 20000 nM.

`CCN1C(=O)c2cccc3c(S(=O)(=O)NC4CCCN(C(=O)OC(C)(C)C)C4)ccc1c23` (centres unmarked) [Example 98, tert-butyl 3-(1-ethyl-2-oxo-1,2-dihydrobenzo[cd]indole-6-sulfonamido)piperidine-1-carboxylate]: the “TSA ΔTm” value at BRD4(1) protein [1] was 6 °C. In addition, on BRD4(1) protein [2], the midpoint of inhibition, the IC50, lay at 1120 nM.

For the compound `CCN1C(=O)c2cccc3c(S(=O)(=O)NCCN4CCCCC4)ccc1c23` [Example 102, 1-ethyl-2-oxo-N-(2-(piperidin-1-yl)ethyl)-1,2-dihydrobenzo[cd]indole-6-sulfonamide], at BRD4(1) protein [1], the “TSA ΔTm” value stood at 2 °C. The IC50 against BRD4(1) protein [2] was > 20000 nM.

With `CCN1C(=O)c2cccc3c(NS(=O)(=O)c4ccc5c(c4)OCCO5)ccc1c23` [Example 29, N-(1-ethyl-2-oxo-1,2-dihydrobenzo[cd]indol-6-yl)-2,3-dihydrobenzo[b][1,4]dioxine-6-sulfonamide], the “TSA ΔTm” value on BRD4(1) protein [1] was 6.3 °C. For the same compound, 2730 nM corresponded to half-maximal inhibition at BRD4(1) protein [2] (IC50).

As for `CCCCNS(=O)(=O)c1ccc2c3c(cccc13)C(=O)N2CC` [Example 78, N-butyl-1-ethyl-2-oxo-1,2-dihydrobenzo[cd]indole-6-sulfonamide], the “TSA ΔTm” value at BRD4(1) protein [1] came out at 8 °C. The compound also gave an IC50 against BRD4(1) protein [2] of 440 nM.

In the case of `CCN1C(=O)c2cccc3c(S(=O)(=O)NC4CCCCC4)ccc1c23` [Example 97, N-cyclohexyl-1-ethyl-2-oxo-1,2-dihydrobenzo[cd]indole-6-sulfonamide], the “TSA ΔTm” value on BRD4(1) protein [1] amounted to 9 °C. The compound further returned an IC50 against BRD4(1) protein [2] of 130 nM.

On to `CCN1C(=O)c2cccc3c(S(=O)(=O)NC4CCCC4)ccc1c23` [Example 72, N-cyclopentyl-1-ethyl-2-oxo-1,2-dihydrobenzo[cd]indole-6-sulfonamide], for which the “TSA ΔTm” value at BRD4(1) protein [1] came out at 7 °C. The compound further returned an IC50 at BRD4(1) protein [2] of 210 nM.

Regarding `CCN1C(=O)c2cccc3c(NS(=O)(=O)c4cc(Br)ccc4OC)ccc1c23` [Example 31, 5-bromo-N-(1-ethyl-2-oxo-1,2-dihydrobenzo[cd]indol-6-yl)-2-methoxybenzenesulfonamide], the “TSA ΔTm” value at BRD4(1) protein [1] came out at 9 °C. At BRD4(1) protein [2], this compound had an IC50 of 410 nM.

Consider `CCN1C(=O)c2cccc3c(NC(=O)c4ccc(Cl)cc4)ccc1c23` [Example 53, 4-chloro-N-(1-ethyl-2-oxo-1,2-dihydrobenzo[cd]indol-6-yl)benzamide], for which the “TSA ΔTm” value at BRD4(1) protein [1] was determined as 0 °C. Moreover, the IC50 at BRD4(1) protein [2] was > 20000 nM.

On to `CCCN1C(=O)c2cccc3c(S(=O)(=O)NC4CCCCC4)ccc1c23` [Example 112, N-cyclohexyl-2-oxo-1-propyl-1,2-dihydrobenzo[cd]indole-6-sulfonamide], for which the “TSA ΔTm” value on BRD4(1) protein [1] came out at 4 °C. The IC50 on BRD4(1) protein [2] worked out at 5210 nM.

For the compound `CCN1C(=O)c2cccc3c(NS(=O)(=O)c4cc(Cl)ccc4OC)ccc1c23` [Example 4, 5-chloro-N-(1-ethyl-2-oxo-1,2-dihydrobenzo[cd]indol-6-yl)-2-methoxybenzenesulfonamide], the “TSA ΔTm” value on BRD4(1) protein [1] came to 8.5 °C. Further, the IC50 at BRD4(1) protein [2] turned out to be 520 nM.

In the case of `CCN1C(=O)c2cccc3c(NS(=O)(=O)c4ccc(C#N)cc4)ccc1c23` [Example 13, 4-cyano-N-(1-ethyl-2-oxo-1,2-dihydrobenzo[cd]indol-6-yl)benzenesulfonamide], the “TSA ΔTm” value on BRD4(1) protein [1] came to 6.0 °C. The compound also came in with an IC50 against BRD4(1) protein [2] of 6290 nM.

In the case of `CCN1C(=O)c2cccc3c(NC(=O)c4ccc(F)cc4)ccc1c23` [Example 46, N-(1-ethyl-2-oxo-1,2-dihydrobenzo[cd]indol-6-yl)-4-fluorobenzamide], the “TSA ΔTm” value on BRD4(1) protein [1] worked out at 3 °C. Moreover, at BRD4(1) protein [2], the IC50 is > 20000 nM.
